Several values for one entry are separate records, joined by “and”; a condition that tells them apart may be missing. Equal entries are not always repeated.
What was measured:
[1] = Phase 1: hematologic and hemolytic parameters in SCD patients; assay type: in vivo, human; conditions: blinded 300 mg Compound 1/placebo QD, individual patients Pt 1-3
Excerpt: Laboratory changes relative to pretreatment for each pt in the MD cohort as of Jul. In 2 of 3 SCD MD-1 pts treated with Compound 1/placebo (currently blinded), Hb increased by >1 g/dL, % reticulocytes decreased, and markers of hemolysis were improved after 14 days of treatment (compared to pre-treatment levels). Hematologic parameters returned to pre-treatment levels 4 to 7 days post-treatment (data not shown) without clinical AEs. […]

[2] = cited from earlier work

SMILES	Hemoglobin ([1]; Day 7 (on Tx))	Indirect Bilirubin ([1]; Day 7 (on Tx))	Reticulocytes, % ([1]; Day 7 (on Tx))	Hemoglobin ([1]; Day 14/15 (EOT))	Indirect Bilirubin ([1]; Day 14/15 (EOT))	Reticulocytes, % ([1]; Day 14/15 (EOT))	steady state whole blood AUC higher in HbSC than HbSS genotype patients ([2]; HbSC n=11, HbSS n=220)	steady state whole blood Cmax higher in HbSC than HbSS genotype patients ([2]; HbSC n=11, HbSS n=220)	steady state plasma AUC higher in HbSC than HbSS genotype patients ([2]; human, in vivo)	steady state plasma Cmax higher in HbSC than HbSS genotype patients ([2]; human, in vivo)	increase of AUC in plasma with a high-fat, high-calorie meal ([2]; relative to fasted state)	increase of AUC in whole blood with a high-fat, high-calorie meal ([2]; relative to fasted state)	increase of Cmax in plasma with a high-fat, high-calorie meal ([2]; relative to fasted state)	increase of Cmax in whole blood with a high-fat, high-calorie meal ([2]; relative to fasted state)
O=C([C@H](CO)c1ccccc1)N1CC2=C(C1)CN(S(=O)(=O)c1cnc3c(c1)OCCO3)C2 [Compound 1/Placebo]	7.9 g/dL and 8.8 g/dL	2.5 mg/dL and 0.9 mg/dL and 0.8 mg/dL	6.8% and 5.8%	7.5 g/dL and 9.2 g/dL	3.0 mg/dL and 0.8 mg/dL and 1.0 mg/dL	0.8% and 4.2%	–	–	–	–	–	–	–	–
CC(C)n1nccc1-c1ncccc1COc1cccc(O)c1C=O [voxelotor, 2-hydroxy-6-((2-(1-isopropyl-1H-pyrazol-5-yl)pyridin-3-yl)methoxy)benzaldehyde]	–	–	–	–	–	–	50%	45%	23%	15%	42%	42%	95%	45%

Source: US20220087983A1, “ACTIVATING PYRUVATE KINASE R” (FORMA Therapeutics, Inc., priority 2020, published 2022)
